# According to patent US20240209001A1, “HETEROCYCLIC DERIVATIVES AS JANUS KINASE INHIBITORS” (CHIESI FARMACEUTICI S.P. A., priority 2021, published 2024):
# What was measured:
# [1] = target: JAK 1 (Homo sapiens (Human), UniProt P23458); assay: Biochemical potency on JAK1, TR-FRET LANCE Ultra kinase assay (compounds 1-92); conditions: ATP at Km, read-out: JAK1 inhibitory activity (pIC50 class) (converted)
# Experimental: (§1) Biochemical Potency on JAK1, JAK2, JAK3 and Tyk2 Assay Principle The objective of this study was to assess the capability of compounds to inhibit all 4 JAK isoforms activity in a cell-free environment. Assay for JAK 1, JAK 2, JAK 3 and TYK2 were performed by Time-resolved fluorescence resonance energy transfer (TR-FRET) technology. It consists in the interaction of two labelled binding partners detected by the energy transfer from an excited donor to an acceptor dye and measurement of light emission by the acceptor dye. LANCE Ultra kinase assay was used. In presence of JAK 1, JAK 2, JAK 3 and TYK2 kinases and ATP (corresponding to Km), the ULight peptide substrate (LANCE Ulight-JAK-1 ([…]) Peptide, Perkin Elmer, TRF0121) is phosphorylated. It is then captured by Eu-anti-phospho-substrate antibody (LANCE Eu-W1024 Anti-phosphotyrosine (PT66), Perkin Elmer, AD0069), which bring the Eu-chelate donor and ULight acceptor dyes into close proximity. Upon excitation at 320 nm, the Eu-chelate transfers its energy to the ULight dye, resulting in a fluorescent light emission at 665 nm. Compound Testing Serial dilutions of compounds in pure DMSO are prepared from 10 mM DMSO stock solutions. Compounds were tested in 384-well plate for 11 consecutive 5-fold dilutions starting from 20 μM highest concentration (20 μM-[…]). 200 nL of compound were transferred from mother plate to test plate by using Mosquito (TTP labtech). Assay was performed in 384-well Perkin Elmer test plate in 20 μL assay volume (kinase reaction) and 40 μL total volume (stopping reagent and antibody detection reagents). In 10 μL of substrate solution (peptide+ATP) 30/50/20/10 nM of peptide and 20/0.7/0.2/12 μM of ATP were added for JAK 1, JAK 2, JAK 3 and TYK2 respectively. 10 μL of enzyme solution was added to kinase reaction at these concentrations: 0.15/0.083/0.025/0.144 ng/μL of JAK 1, JAK 2, JAK 3 and TYK2 respectively. After shaking and 1.5 h of incubation at r.t., 20 μL of Stop (10 μL EDTA) and Detection mixture (10 μL Europium-anti-phospho antibody, final: 0.5 nM) were added. Reading was performed after 1 h of incubation on a EnVision 2104 reader (Perkin Elmer). Calculation of IC50 data, curves and QC analysis was performed by using Excel tool and GraphPadPrism software, v9. Briefly, individual concentration-effect curves are generated by plotting the logarithm of the tested concentration of tested compounds (X) vs. corresponding percent inhibition values (Y) using least squares (ordinary) fit. Best fit IC50 values are calculated using Log(inhibitor) vs. normalized response-Variable slope equation, where Y=100/(1+10^((Log IC50-X)*HillSlope)). QC criteria parameters (Z', S:B, R2, HillSlope) were checked for every IC50 curve. Calculation of IC50 data, curves and QC analysis were made using Excel tools and GraphPadPrism software. QC criteria parameters: Z'≥0.5, Hill Slope range 0.5 to 5, S:B>2.
# [2] = target: JAK 3 (Homo sapiens (Human), UniProt P52333); assay: Biochemical potency on JAK3, TR-FRET LANCE Ultra kinase assay (compounds 1-92); conditions: ATP at Km, read-out: JAK3 inhibitory activity (pIC50 class) (converted)
# Experimental: as §1
# [3] = target: TYK2 (Homo sapiens (Human), UniProt P29597); assay: Biochemical potency on Tyk2, TR-FRET LANCE Ultra kinase assay (compounds 1-92); conditions: ATP at Km, read-out: Tyk2 inhibitory activity (pIC50 class) (converted)
# Experimental: as §1
# [4] = target: JAK 2 (Homo sapiens (Human), UniProt O60674); assay: Biochemical potency on JAK2, TR-FRET LANCE Ultra kinase assay (compounds 1-92); conditions: ATP at Km, read-out: JAK2 inhibitory activity (pIC50 class) (converted)
# Experimental: as §1
# TYK2, sequence (P29597 whole entry): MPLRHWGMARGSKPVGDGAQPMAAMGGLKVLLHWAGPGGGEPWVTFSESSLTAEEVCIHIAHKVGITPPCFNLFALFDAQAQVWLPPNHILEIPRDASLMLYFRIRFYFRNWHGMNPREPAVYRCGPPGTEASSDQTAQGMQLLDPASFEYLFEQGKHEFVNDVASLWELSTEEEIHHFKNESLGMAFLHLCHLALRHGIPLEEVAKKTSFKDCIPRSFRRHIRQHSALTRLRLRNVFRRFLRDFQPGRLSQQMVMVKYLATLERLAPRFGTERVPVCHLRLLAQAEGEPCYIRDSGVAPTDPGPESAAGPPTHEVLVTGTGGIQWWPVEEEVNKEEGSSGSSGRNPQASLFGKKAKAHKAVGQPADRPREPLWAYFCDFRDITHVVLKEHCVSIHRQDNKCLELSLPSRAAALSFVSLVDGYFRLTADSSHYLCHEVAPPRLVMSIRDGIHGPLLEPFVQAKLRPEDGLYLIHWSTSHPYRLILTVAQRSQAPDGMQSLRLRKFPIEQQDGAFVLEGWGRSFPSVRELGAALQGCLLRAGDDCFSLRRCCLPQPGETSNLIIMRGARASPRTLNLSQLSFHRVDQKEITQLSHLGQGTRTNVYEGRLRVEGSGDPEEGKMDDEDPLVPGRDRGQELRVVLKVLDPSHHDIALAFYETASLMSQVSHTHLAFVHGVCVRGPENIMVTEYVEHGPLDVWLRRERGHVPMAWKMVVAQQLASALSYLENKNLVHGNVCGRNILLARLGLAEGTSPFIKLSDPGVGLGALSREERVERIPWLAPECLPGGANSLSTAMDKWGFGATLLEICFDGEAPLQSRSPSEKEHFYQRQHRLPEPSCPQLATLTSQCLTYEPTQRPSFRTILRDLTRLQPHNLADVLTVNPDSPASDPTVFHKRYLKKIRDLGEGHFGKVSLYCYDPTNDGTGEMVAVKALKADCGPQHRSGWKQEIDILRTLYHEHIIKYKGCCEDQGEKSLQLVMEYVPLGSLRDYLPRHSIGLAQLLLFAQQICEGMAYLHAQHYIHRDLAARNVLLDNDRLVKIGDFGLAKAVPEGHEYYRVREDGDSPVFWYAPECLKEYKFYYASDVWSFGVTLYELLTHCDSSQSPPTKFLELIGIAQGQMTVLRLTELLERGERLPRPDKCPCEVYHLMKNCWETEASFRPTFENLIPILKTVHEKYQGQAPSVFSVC
# JAK 2, sequence (O60674 whole entry): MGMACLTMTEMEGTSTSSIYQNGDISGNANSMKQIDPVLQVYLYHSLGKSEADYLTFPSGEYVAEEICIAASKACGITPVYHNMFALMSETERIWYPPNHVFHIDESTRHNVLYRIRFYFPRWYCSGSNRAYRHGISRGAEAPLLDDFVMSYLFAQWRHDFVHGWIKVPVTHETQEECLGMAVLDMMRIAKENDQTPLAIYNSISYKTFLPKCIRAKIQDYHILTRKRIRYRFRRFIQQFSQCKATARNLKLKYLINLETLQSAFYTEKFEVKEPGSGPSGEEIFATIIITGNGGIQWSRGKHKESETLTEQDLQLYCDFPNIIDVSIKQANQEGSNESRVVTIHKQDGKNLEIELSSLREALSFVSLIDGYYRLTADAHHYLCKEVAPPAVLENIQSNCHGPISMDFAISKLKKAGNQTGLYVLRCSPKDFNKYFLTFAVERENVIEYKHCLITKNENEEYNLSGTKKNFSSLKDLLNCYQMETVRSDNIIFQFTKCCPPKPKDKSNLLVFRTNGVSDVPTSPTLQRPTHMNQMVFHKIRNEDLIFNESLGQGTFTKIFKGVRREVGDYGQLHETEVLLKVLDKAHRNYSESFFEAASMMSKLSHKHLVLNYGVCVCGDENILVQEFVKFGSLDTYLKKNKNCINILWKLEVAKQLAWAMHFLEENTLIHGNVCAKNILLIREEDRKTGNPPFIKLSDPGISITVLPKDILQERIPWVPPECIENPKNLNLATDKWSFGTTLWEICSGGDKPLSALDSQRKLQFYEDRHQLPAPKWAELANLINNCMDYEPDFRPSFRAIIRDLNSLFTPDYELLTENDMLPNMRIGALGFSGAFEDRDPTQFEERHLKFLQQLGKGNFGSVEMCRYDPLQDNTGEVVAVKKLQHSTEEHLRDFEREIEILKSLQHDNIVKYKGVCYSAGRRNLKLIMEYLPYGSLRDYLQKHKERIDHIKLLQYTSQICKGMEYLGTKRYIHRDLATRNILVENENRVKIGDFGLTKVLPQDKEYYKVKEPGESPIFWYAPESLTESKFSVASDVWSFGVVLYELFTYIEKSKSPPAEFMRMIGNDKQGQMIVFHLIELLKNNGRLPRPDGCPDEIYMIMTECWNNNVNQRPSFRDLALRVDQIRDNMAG
# JAK 1, sequence (P23458 whole entry, canonical isoform): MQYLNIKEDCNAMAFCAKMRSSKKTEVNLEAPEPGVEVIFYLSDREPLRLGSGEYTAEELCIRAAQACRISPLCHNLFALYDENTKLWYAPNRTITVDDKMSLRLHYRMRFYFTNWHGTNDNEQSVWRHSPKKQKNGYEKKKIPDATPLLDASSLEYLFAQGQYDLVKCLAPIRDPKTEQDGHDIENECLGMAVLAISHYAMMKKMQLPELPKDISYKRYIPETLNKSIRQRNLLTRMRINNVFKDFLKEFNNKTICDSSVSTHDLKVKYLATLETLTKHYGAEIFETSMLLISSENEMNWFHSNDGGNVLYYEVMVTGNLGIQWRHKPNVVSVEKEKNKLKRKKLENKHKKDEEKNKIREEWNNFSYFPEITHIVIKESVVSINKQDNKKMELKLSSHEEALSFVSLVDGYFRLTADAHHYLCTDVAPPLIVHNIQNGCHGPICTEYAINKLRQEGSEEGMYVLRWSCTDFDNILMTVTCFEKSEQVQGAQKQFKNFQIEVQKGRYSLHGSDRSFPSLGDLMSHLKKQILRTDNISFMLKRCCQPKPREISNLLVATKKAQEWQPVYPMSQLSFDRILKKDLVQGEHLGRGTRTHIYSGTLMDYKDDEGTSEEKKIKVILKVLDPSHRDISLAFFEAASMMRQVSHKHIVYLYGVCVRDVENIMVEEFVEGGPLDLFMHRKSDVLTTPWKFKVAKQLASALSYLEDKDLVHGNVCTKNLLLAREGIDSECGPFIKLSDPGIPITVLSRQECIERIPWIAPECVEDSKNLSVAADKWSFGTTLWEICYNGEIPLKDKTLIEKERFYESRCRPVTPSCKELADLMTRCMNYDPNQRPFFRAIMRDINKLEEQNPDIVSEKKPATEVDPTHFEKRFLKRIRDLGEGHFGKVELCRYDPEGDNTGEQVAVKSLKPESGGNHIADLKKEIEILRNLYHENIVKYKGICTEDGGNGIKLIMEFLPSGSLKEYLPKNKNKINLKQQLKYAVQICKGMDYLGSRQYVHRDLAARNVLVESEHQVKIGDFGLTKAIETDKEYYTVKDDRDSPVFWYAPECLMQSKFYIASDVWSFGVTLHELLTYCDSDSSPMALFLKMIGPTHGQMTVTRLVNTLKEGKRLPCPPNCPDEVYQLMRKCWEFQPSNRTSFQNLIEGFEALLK
# JAK 3, sequence (P52333 whole entry): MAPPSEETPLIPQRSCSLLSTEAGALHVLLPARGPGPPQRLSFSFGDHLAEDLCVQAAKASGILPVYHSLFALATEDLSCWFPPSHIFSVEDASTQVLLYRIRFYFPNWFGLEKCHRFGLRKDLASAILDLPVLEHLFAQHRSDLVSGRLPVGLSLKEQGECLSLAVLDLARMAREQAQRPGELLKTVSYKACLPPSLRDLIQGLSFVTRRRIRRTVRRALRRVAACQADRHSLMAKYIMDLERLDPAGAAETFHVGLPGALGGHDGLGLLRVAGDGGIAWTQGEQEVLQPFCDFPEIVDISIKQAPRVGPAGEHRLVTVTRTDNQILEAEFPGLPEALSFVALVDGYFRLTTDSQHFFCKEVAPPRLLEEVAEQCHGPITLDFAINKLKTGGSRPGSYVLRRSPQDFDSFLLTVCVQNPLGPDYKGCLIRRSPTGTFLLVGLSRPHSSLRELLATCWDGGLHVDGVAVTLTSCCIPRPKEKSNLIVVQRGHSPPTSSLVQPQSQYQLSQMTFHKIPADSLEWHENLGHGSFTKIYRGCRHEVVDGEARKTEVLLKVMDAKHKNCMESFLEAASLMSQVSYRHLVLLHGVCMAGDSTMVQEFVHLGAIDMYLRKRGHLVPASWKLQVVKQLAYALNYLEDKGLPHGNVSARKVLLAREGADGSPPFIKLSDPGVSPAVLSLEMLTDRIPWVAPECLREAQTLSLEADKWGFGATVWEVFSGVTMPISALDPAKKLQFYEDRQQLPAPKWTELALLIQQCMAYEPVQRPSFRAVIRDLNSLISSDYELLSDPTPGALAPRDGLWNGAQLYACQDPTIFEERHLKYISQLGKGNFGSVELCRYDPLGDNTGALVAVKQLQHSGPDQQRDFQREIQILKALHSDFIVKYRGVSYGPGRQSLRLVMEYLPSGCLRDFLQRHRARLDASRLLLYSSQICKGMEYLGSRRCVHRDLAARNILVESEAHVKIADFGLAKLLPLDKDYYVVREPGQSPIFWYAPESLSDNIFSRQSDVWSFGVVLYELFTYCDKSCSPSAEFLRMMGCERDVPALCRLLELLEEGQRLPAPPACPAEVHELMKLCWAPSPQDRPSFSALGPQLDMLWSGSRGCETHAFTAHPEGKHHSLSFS
SMILES,IC50 [1] [nM],IC50 [2] [nM],IC50 [3] [nM],IC50 [4] [nM]
"COc1cc(CO)ccc1-n1nc(C)c2cnc(-c3cnn4cccnc34)cc21 [Example 66, (3-methoxy-4-(3-methyl-6-(pyrazolo[1,5-a]pyrimidin-3-yl)-1H-pyrazolo[4,3-c]pyridin-1-yl)phenyl)methanol]",5.01 to 50.1,5.01 to 50.1,> 50.1,5.01 to 50.1
"COc1cc(NS(=O)(=O)c2cnn(C)c2)ccc1-n1nc(C)c2cnc(Nc3ncc[nH]c3=O)cc21 [Example 86, N-(3-methoxy-4-(3-methyl-6-((3-oxo-3,4-dihydropyrazin-2-yl)amino)-1H-pyrazolo[4,3-c]pyridin-1-yl)phenyl)-1-methyl-1H-pyrazole-4-sulfonamide]",5.01 to 50.1,≤ 5.01,5.01 to 50.1,≤ 5.01
"CNCC(=O)Nc1nn(-c2ccc(NS(C)(=O)=O)cc2OC)c2cc(-c3cnn4cccnc34)ncc12 [Example 80, N-(1-(2-methoxy-4-(methylsulfonamido)phenyl)-6-(pyrazolo[1,5-a]pyrimidin-3-yl)-1H-pyrazolo[4,3-c]pyridin-3-yl)-2-(methylamino)acetamide]",≤ 5.01,≤ 5.01,5.01 to 50.1,≤ 5.01
"COc1cc(NS(=O)(=O)C2CC2)ccc1-n1nc(C)c2cnc(-c3cnn4cccnc34)cc21 [Example 6, N-(3-methoxy-4-(3-methyl-6-(pyrazolo[1,5-a]pyrimidin-3-yl)-1H-pyrazolo[4,3-c]pyridin-1-yl)phenyl)cyclopropanesulfonamide]",≤ 5.01,≤ 5.01,5.01 to 50.1,≤ 5.01
"CNC(=O)NCc1ccc(-n2nc(C)c3cnc(-c4cnn5cccnc45)cc32)c(OC)c1 [Example 71, 1-(3-methoxy-4-(3-methyl-6-(pyrazolo[1,5-a]pyrimidin-3-yl)-1H-pyrazolo[4,3-c]pyridin-1-yl)benzyl)-3-methylurea]",5.01 to 50.1,5.01 to 50.1,> 50.1,5.01 to 50.1
"CNc1nn(-c2cc(Cl)c(CNS(C)(=O)=O)cc2OC)c2cc(-c3cnn4cccnc34)ncc12 [Example 57, N-(2-chloro-5-methoxy-4-(3-(methylamino)-6-(pyrazolo[1,5-a]pyrimidin-3-yl)-1H-pyrazolo[4,3-c]pyridin-1-yl)benzyl)methanesulfonamide]",≤ 5.01,≤ 5.01,5.01 to 50.1,≤ 5.01
"COc1cc(NS(C)(=O)=O)c(F)cc1-n1nc(C)c2cnc(-c3cnn4cccnc34)cc21 [Example 12, N-(2-fluoro-5-methoxy-4-(3-methyl-6-(pyrazolo[1,5-a]pyrimidin-3-yl)-1H-pyrazolo[4,3-c]pyridin-1-yl)phenyl)methanesulfonamide]",5.01 to 50.1,5.01 to 50.1,> 50.1,5.01 to 50.1
"COc1cc(NC(=O)c2ccccc2)cnc1-n1nc(C)c2cnc(-c3cnn4cccnc34)cc21 [Example 48, N-(5-methoxy-6-(3-methyl-6-(pyrazolo[1,5-a]pyrimidin-3-yl)-1H-pyrazolo[4,3-c]pyridin-1-yl)pyridin-3-yl)benzamide]",5.01 to 50.1,≤ 5.01,5.01 to 50.1,≤ 5.01
"COc1cc(NS(=O)(=O)C2CCOC2)ccc1-n1nc(C)c2cnc(-c3cnn4cccnc34)cc21 (stereo not shown) [Example 9, N-(3-methoxy-4-(3-methyl-6-(pyrazolo[1,5-a]pyrimidin-3-yl)-1H-pyrazolo[4,3-c]pyridin-1-yl)phenyl)tetrahydrofuran-3-sulfonamide]",5.01 to 50.1,5.01 to 50.1,5.01 to 50.1,≤ 5.01
"COc1cc(CNS(C)(=O)=O)ccc1-n1nc(CC#N)c2cnc(-c3cnn4cccnc34)cc21 [Example 60, N-(4-(3-(cyanomethyl)-6-(pyrazolo[1,5-a]pyrimidin-3-yl)-1H-pyrazolo[4,3-c]pyridin-1-yl)-3-methoxybenzyl)methanesulfonamide]",≤ 5.01,≤ 5.01,5.01 to 50.1,≤ 5.01
"CCCS(=O)(=O)Nc1ccc(-n2nc(NC(=O)CCN3CCN(C)CC3)c3cnc(-c4cnn5cccnc45)cc32)c(OC)c1 [Example 82, N-(1-(2-methoxy-4-(propylsulfonamido)phenyl)-6-(pyrazolo[1,5-a]pyrimidin-3-yl)-1H-pyrazolo[4,3-c]pyridin-3-yl)-3-(4-methylpiperazin-1-yl)propanamide]",5.01 to 50.1,5.01 to 50.1,5.01 to 50.1,5.01 to 50.1
"COc1cc(NS(=O)(=O)CCC(N)=O)ccc1-n1nc(C)c2cnc(-c3cnn4cccnc34)cc21 [Example 13, 3-(N-(3-methoxy-4-(3-methyl-6-(pyrazolo[1,5-a]pyrimidin-3-yl)-1H-pyrazolo[4,3-c]pyridin-1-yl)phenyl)sulfamoyl)propanamide]",≤ 5.01,≤ 5.01,5.01 to 50.1,≤ 5.01

# Further lines, results first:
IC50 [1] [nM],IC50 [2] [nM],IC50 [3] [nM],IC50 [4] [nM],SMILES
≤ 5.01,≤ 5.01,5.01 to 50.1,≤ 5.01,"COc1cc(NS(C)(=O)=O)ccc1-n1nc(C)c2cnc(-c3cnn4cccnc34)cc21 [Example 1, N-(3-methoxy-4-(3-methyl-6-(pyrazolo[1,5-a]pyrimidin-3-yl)-1H-pyrazolo[4,3-c]pyridin-1-yl)phenyl)methanesulfonamide]"
5.01 to 50.1,5.01 to 50.1,> 50.1,5.01 to 50.1,"CCCS(=O)(=O)Nc1ccc(-n2nc(C(=O)NCCCN(C)C)c3cnc(-c4cnn5cccnc45)cc32)c(OC)c1 [Example 46, N-(3-(dimethylamino)propyl)-1-(2-methoxy-4-(propylsulfonamido)phenyl)-6-(pyrazolo[1,5-a]pyrimidin-3-yl)-1H-pyrazolo[4,3-c]pyridine-3-carboxamide]"
≤ 5.01,≤ 5.01,5.01 to 50.1,≤ 5.01,"COc1cc(CNS(C)(=O)=O)ccc1-n1nc(NCCN(C)C)c2cnc(-c3cnn4cccnc34)cc21 [Example 56, N-(4-(3-((2-(dimethylamino)ethyl)amino)-6-(pyrazolo[1,5-a]pyrimidin-3-yl)-1H-pyrazolo[4,3-c]pyridin-1-yl)-3-methoxybenzyl)methanesulfonamide]"
≤ 5.01,≤ 5.01,5.01 to 50.1,≤ 5.01,"CCCS(=O)(=O)Nc1ccc(-n2nc(C)c3cnc(-c4cnn5cccnc45)cc32)c(OC)c1 [Example 4, N-(3-methoxy-4-(3-methyl-6-(pyrazolo[1,5-a]pyrimidin-3-yl)-1H-pyrazolo[4,3-c]pyridin-1-yl)phenyl)propane-1-sulfonamide]"
5.01 to 50.1,≤ 5.01,5.01 to 50.1,≤ 5.01,"CNS(=O)(=O)c1ccc(-n2nc(NCCCN(C)C)c3cnc(-c4cnn5cccnc45)cc32)c(OC)c1 [Example 52, 4-(3-((3-(dimethylamino)propyl)amino)-6-(pyrazolo[1,5-a]pyrimidin-3-yl)-1H-pyrazolo[4,3-c]pyridin-1-yl)-3-methoxy-N-methylbenzenesulfonamide]"
≤ 5.01,5.01 to 50.1,5.01 to 50.1,≤ 5.01,"CNc1nn(-c2ccc(NS(=O)(=O)C3CC3)cc2OC)c2cc(-c3cnn4cccnc34)ncc12 [Example 35, N-(3-methoxy-4-(3-(methylamino)-6-(pyrazolo[1,5-a]pyrimidin-3-yl)-1H-pyrazolo[4,3-c]pyridin-1-yl)phenyl)cyclopropanesulfonamide]"
≤ 5.01,≤ 5.01,5.01 to 50.1,≤ 5.01,"COc1cc(NS(C)(=O)=O)ccc1-n1nc(NCCCNC(=O)OC(C)(C)C)c2cnc(-c3cnn4cccnc34)cc21 [Example 21, tert-butyl (3-((1-(2-methoxy-4-(methylsulfonamido)phenyl)-6-(pyrazolo[1,5-a]pyrimidin-3-yl)-1H-pyrazolo[4,3-c]pyridin-3-yl)amino)propyl)carbamate]"
